Measured values published in ChEMBL document CHEMBL1201862, “PubChem BioAssay data set” (2004).
Active and inactive are the calls of the source.

What was measured:
[1] = Luminescence Cell-Based Dose Response HTS to Identify Activators of Luciferase Translation or Activity in H4 […] Cells. [Related pubchem assays: 1829 (Project Summary), 1814 (Primary HTS)]; type: functional
[2] = Luminescence Cell-Based Dose Confirmation HTS to Identify Activators of 5'UTR Stem-Loop Driven Alpha-Synuclein mRNA Translation in H4 Neuroglioblastoma Cells. [Related pubchem assays: 1829 (Project Summary), 1814 (Primary HTS)]; type: functional
[3] = HEp-2 cell cytotoxicity, dose response, cytotoxicity control for RSV inhibitor project, HTS (AID 2410); type: functional; details: human respiratory syncytial virus
H4 = assay: Luminescence Cell-Based Dose Response HTS to Identify Activators of 5'UTR Stem-Loop Driven Prion Protein mRNA Translation in H4 Neuroglioblastoma Cells. [Related pubchem assays: 1829 (Project Summary), 1814 (Primary HTS)]; type: functional; details: Homo sapiens
Paired box protein Pax-8 = Paired box protein Pax-8 (Homo sapiens, UniProt Q06710); assay: inhibitors of PAX8-driven TPO luciferase reporter, dose response, RMG-I cells, cherry-pick (AID 687027); type: functional, cell-based;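 also: luciferase reporter driven by Pax8 target thyroperoxidase promoter measured by SteadyGlo luminescence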
[4] = target: T1, RNA-binding protein pos-1 (Caenorhabditis elegans, UniProt G5EF15); assay: inhibitors of POS-1/mex-3 RNA binding, dose response, biochemical, fluorescence polarization (AID 1964);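 also: purified POS-1 fused to maltose binding protein made in E. coli; potency of compounds blocking POS-1 binding to fluorescent RNA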
T1 sequence (G5EF15 whole entry): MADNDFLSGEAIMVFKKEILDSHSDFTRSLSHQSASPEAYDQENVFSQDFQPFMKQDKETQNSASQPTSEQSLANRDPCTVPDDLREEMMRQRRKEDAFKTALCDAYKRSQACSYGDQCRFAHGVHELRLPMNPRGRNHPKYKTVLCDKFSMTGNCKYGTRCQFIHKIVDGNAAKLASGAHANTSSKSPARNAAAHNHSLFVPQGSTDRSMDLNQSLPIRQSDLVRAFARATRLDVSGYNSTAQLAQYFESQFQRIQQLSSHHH

[5] = target: T2, Zinc finger protein mex-5 (Caenorhabditis elegans, UniProt Q9XUB2); assay: MEX-5/TCR-2 RNA interaction inhibitors, dose response, biochemical, C. elegans, fluorescence polarization (AID 1960)
T2 sequence (Q9XUB2 whole entry): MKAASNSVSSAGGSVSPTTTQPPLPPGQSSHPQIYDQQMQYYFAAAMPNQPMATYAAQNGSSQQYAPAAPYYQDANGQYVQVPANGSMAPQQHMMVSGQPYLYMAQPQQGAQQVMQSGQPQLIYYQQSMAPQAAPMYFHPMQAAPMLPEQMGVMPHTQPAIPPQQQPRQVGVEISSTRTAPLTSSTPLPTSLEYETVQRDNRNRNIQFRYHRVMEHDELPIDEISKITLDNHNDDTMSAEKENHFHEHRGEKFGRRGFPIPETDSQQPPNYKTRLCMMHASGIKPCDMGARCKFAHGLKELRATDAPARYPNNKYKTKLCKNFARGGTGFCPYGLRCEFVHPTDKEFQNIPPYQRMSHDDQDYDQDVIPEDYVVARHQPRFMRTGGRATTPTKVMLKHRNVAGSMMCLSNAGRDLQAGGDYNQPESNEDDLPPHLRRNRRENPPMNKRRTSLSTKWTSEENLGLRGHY

[6] = target: T3, Rac GTPase-activating protein 1 (Homo sapiens, UniProt Q9H0H5); assay: MgcRacGAP GTPase-activating activity inhibitors, confirmation, biochemical, ADP Hunter fluorescence, primary and confirmatory (AID 624330); type: functional
T3 sequence (Q9H0H5 whole entry): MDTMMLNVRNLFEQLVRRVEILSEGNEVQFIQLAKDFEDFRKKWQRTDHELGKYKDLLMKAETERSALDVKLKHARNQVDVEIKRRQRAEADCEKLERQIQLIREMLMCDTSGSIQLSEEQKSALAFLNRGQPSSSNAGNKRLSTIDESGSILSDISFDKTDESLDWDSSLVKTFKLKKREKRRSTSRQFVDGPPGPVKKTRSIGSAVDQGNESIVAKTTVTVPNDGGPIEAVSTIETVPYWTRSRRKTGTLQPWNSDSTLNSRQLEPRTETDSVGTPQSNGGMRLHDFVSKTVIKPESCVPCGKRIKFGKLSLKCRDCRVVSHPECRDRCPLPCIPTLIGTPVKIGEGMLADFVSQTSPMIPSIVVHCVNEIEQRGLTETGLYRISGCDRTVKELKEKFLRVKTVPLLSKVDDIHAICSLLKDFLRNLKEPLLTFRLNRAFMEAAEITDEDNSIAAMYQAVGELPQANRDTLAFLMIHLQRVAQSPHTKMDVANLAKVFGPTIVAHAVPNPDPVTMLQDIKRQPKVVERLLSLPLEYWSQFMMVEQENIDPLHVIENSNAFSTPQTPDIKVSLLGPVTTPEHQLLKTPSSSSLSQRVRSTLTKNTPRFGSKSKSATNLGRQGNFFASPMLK

H9c2 = assay: cells; type: functional, cell-based; details: Rattus norvegicus, H9c2, Myocardium;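 also: confirmatory concentration-response retest of ultra-high-throughput screening hits for modulation of myocardial damage; cell death induced by hydrogen peroxide oxidative stress; compound pretreatment for 60 min then peroxide exposure for 2 h; potency is for protecting the cells against peroxide damage rather than for killing them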
INS1 = assay: beta cell apoptosis inhibitors, cytokine rescue, dose response, luminescence, retest (AID 449756); type: functional, cell-based; details: Rattus norvegicus;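 also: cell death triggered by IL-1 beta plus TNF-alpha plus IFN-gamma mixture; protective hits raise ATP signal compared with cytokine alone wells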
[7] = cytotoxicity toward NIH3T3 fibroblasts, dose response, counter-screen, cell-based, ATP luminescence, mouse fibroblasts (AID 2010); type: functional;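 also: cells exposed to compound for about 90 hours before reading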
[8] = inhibitors of intracellular T. cruzi replication, confirmation, NIH3T3 host cells, beta-gal luminescence (AID 2044); type: functional, cell-based;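 also: intracellular parasites grown in NIH/3T3 mouse fibroblasts as host cells; luminescent beta-galactosidase reporter signal from transgenic T. cruzi replicating inside host cells; inhibitors lower the luminescence signal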
[9] = control 3'UTR Renilla luciferase suppression, dose response, counter-screen for Shn3 inhibitor project, cell-based, Clone20-Shn3RL, cherry-picked (AID 624133); type: functional
[10] = Shn3 3'UTR reporter inhibitors, dose response, cell-based, Clone20 osteoblasts, firefly luciferase, cherry-picked (AID 624132); type: functional;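 also: firefly luciferase luminescence from reporter carrying the Shn3 3'UTR in osteoblasts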
Cytochrome P450 2C19 = Cytochrome P450 2C19 (Homo sapiens, UniProt P33261); assay: Cytochrome panel assay with activity outcomes. Panel member name: p450-cyp2c19 Compounds with AC50 equal or less than 10 uM are considered active; type: functional; details: read-out: AC50
Cytochrome P450 3A4 = Cytochrome P450 3A4 (Homo sapiens, UniProt P08684);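 also: CYP3A4 tested as one member of a cytochrome P450 panel screen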
Cytochrome P450 1A2 = target: T4, Cytochrome P450 1A2 (Homo sapiens, UniProt P05177);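 also: PubChem cytochrome P450 panel assay, CYP1A2 panel member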
T4 sequence (P05177 whole entry): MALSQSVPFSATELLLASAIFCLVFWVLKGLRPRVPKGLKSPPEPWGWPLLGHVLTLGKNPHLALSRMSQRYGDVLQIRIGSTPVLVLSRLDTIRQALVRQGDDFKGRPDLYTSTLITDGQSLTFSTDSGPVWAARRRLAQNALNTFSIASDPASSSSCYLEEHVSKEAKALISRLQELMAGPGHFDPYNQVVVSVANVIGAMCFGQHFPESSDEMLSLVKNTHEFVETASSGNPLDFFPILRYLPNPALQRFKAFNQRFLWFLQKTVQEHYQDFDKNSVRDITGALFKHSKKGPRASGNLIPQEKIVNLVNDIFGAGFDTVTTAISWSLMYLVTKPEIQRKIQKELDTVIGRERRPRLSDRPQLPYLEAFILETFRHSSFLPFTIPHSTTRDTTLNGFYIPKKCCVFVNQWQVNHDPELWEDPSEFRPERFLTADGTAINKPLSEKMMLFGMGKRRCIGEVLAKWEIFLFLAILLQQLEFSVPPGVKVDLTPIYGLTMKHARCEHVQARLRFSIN

Sequence of Paired box protein Pax-8 (Q06710 whole entry, the tested form may be a part): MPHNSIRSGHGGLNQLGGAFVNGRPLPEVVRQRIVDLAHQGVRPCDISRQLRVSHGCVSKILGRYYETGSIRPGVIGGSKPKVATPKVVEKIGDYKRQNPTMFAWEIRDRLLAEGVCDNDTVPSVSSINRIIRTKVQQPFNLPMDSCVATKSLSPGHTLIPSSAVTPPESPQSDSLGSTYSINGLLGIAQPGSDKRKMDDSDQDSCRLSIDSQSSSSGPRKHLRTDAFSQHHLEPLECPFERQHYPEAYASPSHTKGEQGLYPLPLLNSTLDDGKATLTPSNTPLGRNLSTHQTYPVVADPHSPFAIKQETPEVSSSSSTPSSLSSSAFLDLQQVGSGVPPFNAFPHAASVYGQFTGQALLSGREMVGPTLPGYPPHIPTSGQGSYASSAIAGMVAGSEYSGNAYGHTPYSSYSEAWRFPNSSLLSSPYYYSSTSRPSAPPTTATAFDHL
Sequence of Cytochrome P450 3A4 (P08684 whole entry): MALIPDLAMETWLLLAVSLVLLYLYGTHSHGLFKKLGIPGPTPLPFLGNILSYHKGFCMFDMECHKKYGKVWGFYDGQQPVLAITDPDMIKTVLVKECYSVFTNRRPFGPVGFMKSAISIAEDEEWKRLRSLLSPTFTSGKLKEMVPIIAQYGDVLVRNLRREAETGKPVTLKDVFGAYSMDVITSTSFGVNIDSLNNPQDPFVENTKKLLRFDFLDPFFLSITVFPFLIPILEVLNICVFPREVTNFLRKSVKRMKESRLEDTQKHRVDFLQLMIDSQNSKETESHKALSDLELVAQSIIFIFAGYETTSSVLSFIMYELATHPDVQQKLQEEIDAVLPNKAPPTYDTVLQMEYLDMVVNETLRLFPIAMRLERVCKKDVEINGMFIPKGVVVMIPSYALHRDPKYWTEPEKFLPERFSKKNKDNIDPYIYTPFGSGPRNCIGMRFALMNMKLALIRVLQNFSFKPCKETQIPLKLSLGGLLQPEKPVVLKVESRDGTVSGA
Sequence of Cytochrome P450 2C19 (P33261 whole entry): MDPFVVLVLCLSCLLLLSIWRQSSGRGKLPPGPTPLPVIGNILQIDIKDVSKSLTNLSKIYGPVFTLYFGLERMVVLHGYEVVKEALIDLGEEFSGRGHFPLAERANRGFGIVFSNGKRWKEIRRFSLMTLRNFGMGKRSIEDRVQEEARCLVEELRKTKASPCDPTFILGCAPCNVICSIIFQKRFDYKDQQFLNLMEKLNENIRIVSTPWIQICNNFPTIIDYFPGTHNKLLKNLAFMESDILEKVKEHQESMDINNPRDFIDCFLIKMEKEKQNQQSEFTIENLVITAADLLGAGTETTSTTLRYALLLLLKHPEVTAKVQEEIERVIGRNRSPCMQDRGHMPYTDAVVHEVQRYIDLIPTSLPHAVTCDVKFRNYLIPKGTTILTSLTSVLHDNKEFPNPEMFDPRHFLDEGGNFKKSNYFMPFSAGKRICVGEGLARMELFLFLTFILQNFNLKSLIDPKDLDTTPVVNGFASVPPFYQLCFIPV

CN1C/C(=C\c2ccc(N3CCOCC3)cc2)C(=O)/C(=C/c2ccc(N3CCOCC3)cc2)C1
EC50 [1]: 48.1 µM (active) | EC50 [2]: 23.7 µM (active) | CC50 [3]: 22.8 µM (active) | EC50 (H4): > 120 µM (not active)

COc1ccc(C(=O)CCS(=O)(=O)c2ccc(C)cc2)cc1OC
AC50 (Paired box protein Pax-8): 9.82 µM (active)

COc1cccc(C2c3c(oc4ccccc4c3=O)C(=O)N2Cc2ccco2)c1 (stereo not drawn)
EC50 [1]: 55.4 µM (active) | EC50 [4]: 36.3 µM (active) | EC50 [2]: 1.7 µM (active) | EC50 (H4): 68 µM (active) | EC50 [5]: 150 µM (active)

O=C(COc1ccc2ccccc2c1)N1CCN(Cc2ccncc2)CC1
IC50 [6]: 62.2 µM (active)

COc1ccc(CCNC(=O)c2cc3c(C)nccc3nc2O)cc1OC
IC50 (H9c2): > 79 µM (inactive)

COc1cc(C)cc2oc(=O)c(CC(=O)N3CCN(C(=O)C4COc5ccccc5O4)CC3)c(C)c12 (stereo not drawn)
IC50 (H9c2): > 79 µM (inactive)

Cc1ccc(-c2nnc(O)c3ccccc23)cc1S(=O)(=O)NCCN1CCOCC1
IC50 (H9c2): 14.2 µM (active)

CCCS(=O)(=O)N1CCN(C2Cc3ccccc3C2)CC1
IC50 [6]: 180 µM (active)

COc1cccc(C(=O)Nc2nnc(-c3ccc(Cl)cc3)o2)c1
IC50 (H9c2): > 79 µM (inactive)

CCOC(=O)COc1cc(OCC(=O)OCC)c2c3c(c(=O)oc2c1)CCCC3
IC50 (H9c2): 10.5 µM (active)

N#Cc1ccc(-c2ccc(Cl)cc2)nc1SCC(=O)c1cccc(Cl)c1
AC50 (INS1): 3.9 µM (active) | EC50 [1]: > 120 µM (not active) | EC50 [2]: > 120 µM (not active) | EC50 (H4): > 120 µM (not active)

O=C1COc2ccc(-c3nnc(O)c4ccccc34)cc2N1
IC50 (H9c2): 5.26 µM (active)

CCOc1cc(/C=C(\C#N)C(=O)NCc2cccnc2)ccc1O
IC50 [6]: 42.4 µM (active)

COc1cc(-c2cc(C(=O)O)c3c(OC)c(OC)c(OC)cc3n2)ccc1O
IC50 [6]: 126 µM (active)

CN(CC(=O)Nc1ccccc1Br)C(=O)CCc1nc(O)c2ccccc2n1
IC50 (H9c2): 12.7 µM (active)

Cc1cc(NC(=O)COC(=O)COc2ccc3c4c(c(=O)oc3c2)CCC4)no1
IC50 (H9c2): 13.1 µM (active)

COc1ccc(-c2cc(C(=O)N3CCN(c4ccccc4)CC3)c3ccccc3n2)cc1OC
IC50 (H9c2): 63.6 µM (inactive)

CC(C)c1cc(C(N)=O)c(NC(=O)c2cccc(COc3ccc(Br)cc3)c2)s1
EC50 [1]: 41.9 µM (active) | EC50 [4]: > 300 µM (not active) | EC50 [2]: 11.3 µM (active) | EC50 [7]: > 30 µM (not active) | EC50 (H4): 0.366 µM (active) | EC50 [5]: > 300 µM (not active) | EC50 [8]: 1.87 µM (active)

CSc1ccc(CN2CCN(Cc3ccccc3Cl)CC2)cc1
IC50 [6]: 95.1 µM (active)

Cn1c(C(=O)Nc2ccc3c(c2)OCCO3)cc2c(=O)n(C)c3ccccc3c21
IC50 (H9c2): > 79 µM (inactive)

COc1ccccc1CNc1ncc(-c2ccccc2)n1C
IC50 [6]: 49.5 µM (active)

CN(CC(=O)NCc1ccccc1)Cc1cccc(F)c1
IC50 [6]: 67 µM (active)

COc1cc2nc(O)n3nc(-c4ccccc4)nc3c2cc1OC
IC50 (H9c2): > 79 µM (inactive)

Cc1ccc(S(=O)(=O)c2nc(S(=O)(=O)c3ccccc3)sc2N2CCN(C)CC2)cc1
AC50 (Paired box protein Pax-8): 7.56 µM (active)

O=C(c1cccs1)N1CCN(Cc2ccncc2)CC1
IC50 [6]: 88.5 µM (active)

CN(C)CCNC(C(=O)Nc1cccc(C(F)(F)F)c1)c1ccccc1 (stereo not drawn)
IC50 [6]: 76.5 µM (active)

CC(=O)N1c2ccc(S(=O)(=O)N3CCC(C(=O)N4CCN(c5cc(Cl)ccc5C)CC4)CC3)cc2CC1C (stereo not drawn)
AC50 [9]: 6.67 µM (active) | AC50 [10]: 3.1 µM (active)

COc1cc2ncnc(N[C@H](C)c3ccccc3)c2cc1OC
AC50 [9]: 22.7 µM (active) | AC50 [10]: 8.72 µM (active)

COc1cc2c(C#CCCCO)c(-c3ccsc3)oc(=O)c2cc1OC
IC50 (H9c2): > 79 µM (inactive)

O=C(CCc1nc(O)c2ccccc2n1)NNC(=O)c1ccc(Cl)cc1
IC50 (H9c2): > 79 µM (inactive)

COc1cccc(-c2cnc3c(NC=O)cc(-c4cccc(NC(C)=O)c4)cn23)c1
IC50 (H9c2): > 79 µM (inactive)

CCN(CC(=O)Nc1ccc(OC)cc1)C(=O)CCc1nc(O)c2ccccc2n1
IC50 (H9c2): > 79 µM (inactive)

O=C(N/N=C/c1cn(-c2ccccc2)nc1-c1cccs1)c1ccccc1F
IC50 (H9c2): > 79 µM (inactive) | CC50 [3]: 25.6 µM (active)

Cc1nc2c(c(=O)n1CCC1=CCCCC1)c1nc3ccccc3nc1n2/N=C/c1ccccc1
IC50 (H9c2): > 79 µM (inactive)

CCCCCCn1c(C)nc2c(c1=O)c1nc3ccccc3nc1n2/N=C/c1ccco1
IC50 (H9c2): 23.3 µM (active)

COc1ccc(OCC(=O)N/N=C/c2cccc3cccnc23)cc1
IC50 (H9c2): > 79 µM (inactive)

C[C@@H]1CN([C@@H](C)CO)C(=O)c2cc(NC(=O)Nc3ccc(C(F)(F)F)cc3)ccc2O[C@@H](C)CCCCO[C@H]1CN(C)Cc1ccc(Cl)c(Cl)c1
AC50 (Paired box protein Pax-8): 9.66 µM (active)

C[C@@H]1CCCCO[C@@H](CN(C)Cc2ccc(C(F)(F)F)cc2)[C@H](C)CN([C@H](C)CO)C(=O)c2cc(NC(=O)Cc3ccccc3)ccc2O1
AC50 (Paired box protein Pax-8): 4.62 µM (active)

Cc1ccc(NC(=O)CCC(=O)N/N=C/c2ccc(O)cc2)cc1
IC50 [6]: 51.4 µM (active)

C/C(=N\n1nnnc1Nc1ccccc1)c1ccc(N)cc1
AC50 (Cytochrome P450 2C19): 3.55 µM (inconclusive) | EC50 [1]: > 120 µM (not active) | EC50 [2]: > 120 µM (not active) | AC50 (Cytochrome P450 3A4): 22.4 µM (inconclusive) | AC50 (Cytochrome P450 1A2): 12.6 µM (inconclusive) | EC50 (H4): > 120 µM (not active)

Oc1ccc(/C=N/NC(=S)NCc2ccco2)cc1
IC50 [6]: 35.3 µM (active)

COc1cc(-c2ccc(N)c(OC)c2)ccc1N
IC50 [6]: 9 µM (active)

COc1ccc([C@@]23Oc4cc(OC)cc(OC)c4[C@]2(O)[C@H](O)[C@H](C(=O)N(C)C)[C@H]3c2ccccc2)cc1 [ROCAGLAMIDE]
AC50 [9]: 0.889 µM (active) | AC50 [10]: < 0.26 µM (active)
